Reference: article PMC3573878 (Structure (London, England : 1993), 2012)

Molecular target: ex-LdtMt2 (LdtMt2; MT2594; product of gene Rv2518c) (Mycobacterium tuberculosis, UniProt O53223)
Experiment: isothermal titration calorimetry, single-site model
Type: binding

C[C@@H](O)[C@H]1C(=O)N2C(C(=O)O)=C(SCCN=CN)C[C@H]12 [imipenem]
Kd: 54.8 ± 8.8 nM
